# Source: the METLIN SMRT retention time set (Domingo-Almenara et al. 2019)
# Experiment: gradient 5% acetonitrile 3 min, to 50% in 2 min, to 85% in 15 min, held 3 min, 100 µL/min
# Settings: column: Zorbax Extend-C18 2.1 x 50 mm; eluents: water / acetonitrile, 0.1% formic acid
# Procedure, shortened: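 Retention times of pure standards were taken from adduct peaks that were selected by computer and manually inspected. Over 3 months, mixtures of ~100 molecules were run by HPLC–quadrupole time-of-flight mass spectrometry in positive and negative ionization mode. The Zorbax Extend-C18 column (2.1 × 50 mm, 1.8 μm) ran at 100 μL/min in water and acetonitrile, each containing 0.1% formic acid, with 40 μL dead volume and 900 μL dwell volume.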
row,SMILES,RP-LC retention time
1,O=C(O)c1cc(NS(=O)(=O)c2ccccc2C(F)(F)F)cc(C(=O)O)c1,660 s
2,Cc1[nH]c2ccc(C(=O)NC3CCCC3)cc2c1C,650 s
3,c1cc(-c2noc(-c3ccsc3)n2)cc(N2CCCC2)n1,664 s
4,CCCCNC(=O)CN1C(=O)C2CCCCN2c2ccc(C(=O)N3CCCC3)cc21 (centres undefined),743 s
5,COc1c(S(=O)(=O)Nc2cccnc2)ccc(Cl)c1Cl,649 s
6,CCCC(NC(=O)c1ccc(Cl)cc1)C(=O)Nc1nc2ccccc2[nH]1 (centres undefined),742 s
7,CC(C)c1ccc(NC(=O)C2CCN(S(C)(=O)=O)c3cc(Cl)ccc3O2)cc1 (centres undefined),1110 s
8,COc1ccc(-c2noc(C3CCCN3C(=O)c3cccs3)n2)cc1 (centres undefined),924 s
9,COc1ccc(CCc2nc3nccc(-c4ccc(F)cc4)n3n2)cc1OC,865 s
10,COc1ccc(-c2ncc3c(n2)CCN(C(=O)c2ccc(C)c(C)c2)C3)cc1,1030 s
11,Cc1cc(C)c(S(=O)(=O)N2CCCC2c2nc(-c3ccc(F)cc3)no2)c(C)c1 (centres undefined),1270 s
12,O=C(NCc1ccc2c(c1)OCO2)C1CC(=O)N(CCc2c[nH]c3ccc(Cl)cc23)C1 (centres undefined),799 s
13,COc1ccc(C2CC(=O)N(c3ccccc3)C(=O)C2)cc1,842 s
14,Cc1ccccc1Nc1c(-c2ccc(Cl)cc2)nc2ccc(Cl)cn12,1050 s
15,CC(C)n1cnc(S(=O)(=O)N2CCC(C(=O)NCc3ccccc3)CC2)c1,712 s
16,CC(C)CNC(=O)CC1Sc2ncccc2N(CC(C)C)C1=O (centres undefined),791 s
17,O=C(Nc1c(F)cccc1F)N1CC(c2nc(C3CC3)no2)C1,670 s
18,Cc1csc(-c2cc(S(=O)(=O)NCCC3=CCCCC3)cn2CC(=O)N2CCCCC2)n1,1140 s
19,Cn1cc(C(=O)Nc2ccc(C(F)(F)F)cc2)c2cccnc21,909 s
20,O=C(Cc1ccsc1)N1C[C@H]2C[C@H](C1)[C@H]1CCCC(=O)N1C2,631 s
21,O=C(Cc1nnc2cc(-c3nc(C4CC4)no3)ccn12)N1CCc2ccccc2C1,780 s
22,Cn1c(CCC(=O)NCc2ccc(C(F)(F)F)cc2)nc2ccccc2c1=O,825 s
23,Cc1cc(C)cc(N2CCCn3c2nc2c3c(=O)n(C)c(=O)n2C)c1,841 s

row,SMILES,RP-LC retention time
1,CCN(CC)c1ccc(NC(=O)C2CCCN(c3nc4ccccc4nc3C(F)(F)F)C2)c(C)c1 (centres undefined),825 s
2,Cc1cc(C)n(-c2ccnc(N3CCC(C(=O)NCCc4ccccc4)CC3)n2)n1,839 s
3,COc1cc(OC)cc(C(=O)N2CCN(c3cc(=O)n(C(C)C)c(=O)n3C(C)C)CC2)c1,855 s
4,COc1ccc(-c2nc(-c3ccc4ncn(C(C)C)c4c3)no2)c(C)c1,881 s
5,O=C(c1cccs1)N1CCCCC1c1nncn1Cc1ccccc1 (centres undefined),642 s
6,Cc1cc(-c2nnc(-c3ccccc3)o2)c(C)n1CC(=O)Nc1cc(F)cc(F)c1,747 s
7,Cc1ccc2nc(C(=O)N3CCN(c4cccc(C)c4C)CC3)cn2c1,804 s
8,CC(C)Cc1cc(-c2nn3c(-c4cccc(F)c4)nnc3s2)n[nH]1,993 s
9,CCNC(=O)C1CCCN(c2nc3ncn(CC(=O)NCCC4=CCCCC4)c(=O)c3s2)C1 (centres undefined),692 s
10,Cc1nncn1C1CCN(S(=O)(=O)c2ccc(CC(C)C)cc2)CC1,822 s
11,Cn1c(=O)c(C(=O)N2CCCC2)nc2ccccc21,622 s
12,CCn1c(C(=O)N2CCN(c3ccccn3)CC2)cc2c(=O)oc3ccccc3c21,637 s
13,O=C(Nc1ccc2c(c1)CN(S(=O)(=O)c1ccc3c(c1)CCC3)CCO2)C1CC1,932 s
14,COc1ccc(C(=O)CSc2nc(-c3ccc(OC)cc3)ns2)cc1,1090 s
15,Cc1ccc(NS(=O)(=O)c2cc(-c3[nH]ncc3C(=O)N(C)C)oc2C)cc1,690 s
16,O=C(CN1CCN(Cc2ccc(F)cc2)C1=O)NCCc1ccncc1,596 s
17,Cn1c(=O)c(-c2ccc(C(=O)NCC3CCCO3)cc2)nc2ccccc21 (centres undefined),724 s
18,CCN(C(=O)c1ccccc1C)c1nc(-c2ccccc2)cs1,1260 s
19,CCc1cccc(NC(=O)C2CCN(S(=O)(=O)c3cn(C(C)C)cn3)CC2)c1,840 s
20,COc1ccc(-c2cn3c(CC(=O)NCc4cccc(Br)c4)csc3n2)cc1,811 s
21,O=C(NCc1ccc(Cl)cc1)c1ccc2c(c1)nc1n2CCN(Cc2ccccn2)C1=O,675 s
22,CCN(CC)CCCNC(=O)C1CCCN(c2nc3ccccc3n(Cc3ccccc3)c2=O)C1 (centres undefined),726 s
23,Cc1cccc(NC(=O)Cn2c(C)nc(C)c(C)c2=O)c1C,641 s

row,SMILES,RP-LC retention time
1,CC(C)n1nccc1-c1nnc(NC(=O)C2CC(=O)N(c3ccc(F)cc3)C2)o1 (centres undefined),685 s
2,CCn1c(=O)c(N2CCCC(C(=O)N3CCN(c4cccc(OC)c4)CC3)C2)nc2ccccc21 (centres undefined),1100 s
3,Cn1c(=O)c(N2CCCC(C(=O)NCCc3c[nH]c4ccc(Cl)cc34)C2)nc2ccccc21 (centres undefined),960 s
4,NC(=O)C1CCN(C(=O)CN2CCN(c3ccccc3F)CC2)CC1,580 s
5,Cc1nc2cc(N3CCCC(C(=O)NCc4cccs4)C3)cnc2nc1C (centres undefined),687 s
6,CC1Oc2ccc(-c3csc(NC(=O)C4CCCCC4)n3)cc2N(C)C1=O (centres undefined),1040 s
7,Cc1ccc2c(Nc3cccc(Cl)c3)c(-c3nc(C)no3)cnc2n1,808 s
8,O=C1CCCN1c1ccc(Cn2cccc(S(=O)(=O)N3CCCC3)c2=O)cc1,696 s
9,COc1cccc2c1oc(=O)c1c(NC(C)=O)nc3c(c12)CCCCC3,1020 s
10,COc1ccc(-c2nc(Nc3ccccn3)sc2C)cc1,807 s
11,CC(C)(C)c1ccc(S(=O)(=O)N2CCCCC2C(=O)N2CCN(c3ccccc3F)CC2)cc1 (centres undefined),1280 s
12,O=C(Nc1ncnc2sccc12)c1ccc([N+](=O)[O-])o1,664 s
13,c1ccc(-c2cc(N3CCOCC3)n[nH]2)cc1,686 s
14,COc1cccc(N2CCN(c3ccnc(SCC(=O)Nc4ccccc4F)n3)CC2)c1,789 s
15,COC(=O)c1c(C)[nH]c(C(=O)N2CCC(CC(=O)N3CCCCCC3)CC2)c1C,715 s
16,COC(=O)C1=CN(c2ccc(OC)c(OC)c2)c2ccccc2S1(=O)=O,763 s
17,CC1CCCCN1CCCNC(=O)CN1C(=O)CCn2nc(-c3cn(C)c4ccccc34)cc21 (centres undefined),564 s
18,CCc1ccccc1N1C(=O)CC(N2CCC(C(N)=O)CC2)C1=O (centres undefined),591 s
19,COc1ccc(Cl)cc1S(=O)(=O)N1CCCC(C(=O)Nc2ccc(C)c(C)c2)C1 (centres undefined),1080 s
20,O=C(CCNc1c(-c2cccc(F)c2)nc2cnccn12)NCc1ccc(F)cc1,755 s
21,CCc1cc(=O)n(CC(=O)Nc2ccccc2Cl)c(N2CCOCC2)n1,830 s
22,CC(=O)Nc1cccc(N2CC(C(=O)Nc3cccc(C(F)(F)F)c3)CC2=O)c1 (centres undefined),775 s
23,c1cc(CN2CCCCC2)cc(OCCCNc2nc3ccccc3s2)c1,665 s

row,SMILES,RP-LC retention time
1,COc1ccc(-c2csc(NC(=O)c3cccc([N+](=O)[O-])c3C(=O)O)n2)cc1,938 s
2,O=C(NCCN1CCOCC1)c1ccc(Nc2c(-c3ccccc3)nc3cnccn23)cc1,581 s
3,Oc1cccc(-c2nc3ncccn3c2Nc2ccc(Cl)cc2)c1,710 s
4,Cc1cc(C)c(S(=O)(=O)N(CC(=O)N2CCNCC2)CC2CCCO2)cc1C (centres undefined),704 s
5,FC(F)c1nc2ccccc2n1-c1nc(N2CCOCC2)nc(N2CCOCC2)n1,938 s
6,O=C(Cc1ccccc1)NC1CCN(c2cc(-c3cccs3)[nH]n2)C1 (centres undefined),741 s
7,Cc1c(Cl)cccc1NC(=O)C1CCCN(c2nnc(C)c3c(C)n(-c4ccccc4)nc23)C1 (centres undefined),784 s
8,COC(=O)c1ccc2c(=O)n(-c3cc(F)cc(F)c3)c(N3CCN(c4ccccn4)CC3)nc2c1,753 s
9,CCc1cc(Br)ccc1NC(=O)C1CCCN(c2nc3ccccc3nc2OC)C1 (centres undefined),1300 s
10,CCCN(CC1CCOC1)C(=O)Nc1cc(C)ccc1OC (centres undefined),874 s
11,CN1CCC(N(C)C(=O)CN2C(=O)C(Oc3ccc(F)cc3)C23CCCCC3)CC1 (centres undefined),680 s
12,C=Cc1ccc(CSc2nnc3c(S(=O)(=O)N4CCCC4)cccn23)cc1,884 s
13,CCCc1nc(-c2cc3cccc(C)c3nc2NCCc2ccc(S(N)(=O)=O)cc2)no1,1300 s
14,O=C(Cc1ccc(Cl)cc1)Nc1cnc(N2CCCC2)nc1,752 s
15,CCN(CC)CCOc1ccccc1/C=C/c1noc2ccccc12,724 s
16,O=C(NCc1ccc2c(c1)OCO2)C1CCN(CCc2c[nH]c3ncccc23)CC1,577 s
17,CCC(C)NC(=O)C1CCN(S(C)(=O)=O)c2cc(Cl)ccc2O1 (centres undefined),862 s
18,O=C(NCCCn1nc(-c2ccc(F)cc2)ccc1=O)c1cccc(-n2cnnn2)c1,683 s
19,CCCCOc1ccc(Nc2cc(Cl)ccc2C(=O)O)cn1,1260 s
20,CCn1c(=O)c2c(nc3n2CC(C)CN3c2ccc(Br)cc2)n(C)c1=O (centres undefined),954 s
